Measurements from patent US12351571B2, “Substituted quinoxaline compounds as inhibitors of FGFR tyrosine kinases” (ARRAY BIOPHARMA INC., priority 2018, dated 2025).

How the values were obtained:
dephosphorylated FGFR2 = dephosphorylated FGFR2 (Homo sapiens (Human), UniProt P21802); assay: FGFR Enzyme Binding Assay (HTRF tracer displacement), FGFR2; conditions: 5 nM dephosphorylated FGFR2, 60 minute incubation at 22° C.; read-out: FGFR2 Enz Binding IC50
Experimental: The potency of compounds inhibiting human isoforms of FGFR kinase was determined using Life Technologies' Homogeneous Time Resolved Fluorescence (HTRF)-based binding assay technology. An incubation was conducted with either 5 nM dephosphorylated FGFR1 (Array Biopharma, p1702; SEQ ID NO: 1, amino acids 458 to 765, dephosphorylated by co-expression with PTP1b (protein tyrosine phosphatase 1B)), 5 nM dephosphorylated FGFR2 (Life Technologies, Cat. No. PV4106 that had been dephosphorylated with Lambda protein phosphatase (New England Biolabs, cat #P0753)) or 5 nM phosphorylated FGFR3 (Array Biopharma, p1836; SEQ ID NO: 5, amino acids 449 to 759), 50 nM Kinase Tracer 236 (Life Technologies Cat. No. PR9078A), 2 nM Biotin-anti-6HIS (Life Technologies Cat. No. PV6090) and 2 nM Europium-Streptavidin (Life Technologies Cat. No. PV6025) along with test compound in a buffer consisting of 50 mM HEPES ((4-(2-hydroxyethyl)-1-piperazineethanesulfonic acid, pH 7.5), 5 mM MgCl2, 0.005% Triton X-100, 1 mM DTT, 1 mM NaVO4 and 2% DMSO in a final volume of 12 μL Compounds were typically prepared as a 3-fold or 4-fold serial dilution in DMSO and added to the assay to give the appropriate final concentration. After a 60 minute incubation at 22° C., the extent of tracer displacement was determined using a PerkinElmer EnVision multimode plate reader via HTRF dual wavelength detection, and the percent of control (POC) was calculated using a ratiometric emission factor. One hundred POC was determined using no test compound, and 0 POC was determined in the presence of 1 μM of an appropriate control inhibitor. A 4-parameter logistic curve was fit to the POC values as a function of the concentration of compound, and the IC50 value was the point where the best-fit curve crossed 50 POC.

human wild type FGFR2 = human wild type FGFR2 (Homo sapiens (Human), UniProt P21802); assay: FGFR2 pFGFR Cell Assay; type: cell-based; conditions: HEK-293 cells, 1 hour compound, 30 ng/ml human FGF-acidic, ELISA
Experimental: (§1) HEK-293 cells transfected with dox-inducible human wild type FGFR2 (SEQ ID NO: 3) were plated in a collagen or poly-D-lysine coated 96 well flat bottom plates at 4×10^5 cells/well in complete DMEM medium containing 10% FBS and 1 μg/ml doxycycline and allowed to attach for 24 h at 37° C., 5% CO2. Cells were treated with compound using 1:3 serial dilutions with a maximum final concentration of 5 μM. Compound was incubated on cells for 1 hour at 37° C., 5% CO2. Cells were then stimulated with a final concentration of 30 ng/ml human FGF-acidic (R&D Systems Cat number 232-FA/CF) for 5 minutes at 37° C., 5% CO2. Medium was removed and cells were lysed with lysis buffer containing phosphatase and protease inhibitors. Phospho FGFR2 was measured by ELISA (R&D Systems cat. no. DYC684). The ELISA captures total FGFR2 and detects total phospho tyrosine. Optical density was measured for each well using a Versamax reader at a wavelength of 450 nm. 100 POC was determined using no test compounds and 0 POC was determined using a control compound. The POC values were fit to a 4-parameter logistic curve as a function of the concentration of the compound, and the IC50 value is the point where the curve crosses 50 POC.

human wild type FGFR3 = human wild type FGFR3 (Homo sapiens (Human), UniProt P22607); assay: FGFR3 pFGFR Cell Assay; type: cell-based; conditions: HEK-293 cells, 1 hour compound, 100 ng/ml human FGF-acidic, ELISA
Experimental: as §1, with “FGFR3” for “FGFR2”, “5)” for “3)”, “top” for “maximum”, “100” for “30”, “FGF-acidic” for “FGF-acidic (R&D Systems Cat number 232-FA/CF)”, “cat DYC2719).” for “cat. no. DYC684).”

Sequence of dephosphorylated FGFR2 (P21802 22-821): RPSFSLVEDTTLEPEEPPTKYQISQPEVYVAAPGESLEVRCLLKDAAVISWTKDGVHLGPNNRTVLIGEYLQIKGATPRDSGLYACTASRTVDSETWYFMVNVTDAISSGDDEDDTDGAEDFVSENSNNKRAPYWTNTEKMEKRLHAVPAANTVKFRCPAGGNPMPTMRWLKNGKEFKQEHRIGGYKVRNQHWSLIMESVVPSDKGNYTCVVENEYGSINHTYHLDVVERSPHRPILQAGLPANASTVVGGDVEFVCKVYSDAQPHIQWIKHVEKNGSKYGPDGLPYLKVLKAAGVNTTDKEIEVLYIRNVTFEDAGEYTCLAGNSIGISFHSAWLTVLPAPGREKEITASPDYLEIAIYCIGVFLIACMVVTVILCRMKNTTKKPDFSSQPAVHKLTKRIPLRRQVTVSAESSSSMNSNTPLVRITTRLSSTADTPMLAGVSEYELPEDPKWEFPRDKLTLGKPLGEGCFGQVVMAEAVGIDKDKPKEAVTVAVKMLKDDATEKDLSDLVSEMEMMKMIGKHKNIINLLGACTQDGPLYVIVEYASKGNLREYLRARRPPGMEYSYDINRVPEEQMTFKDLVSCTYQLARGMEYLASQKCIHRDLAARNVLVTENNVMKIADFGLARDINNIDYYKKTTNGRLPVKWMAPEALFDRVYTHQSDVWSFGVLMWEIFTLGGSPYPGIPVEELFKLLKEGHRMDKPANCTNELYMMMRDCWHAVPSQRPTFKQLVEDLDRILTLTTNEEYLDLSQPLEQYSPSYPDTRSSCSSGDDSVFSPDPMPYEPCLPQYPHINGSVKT
Sequence of human wild type FGFR2 (P21802 22-821): as above
Sequence of human wild type FGFR3 (P22607 23-806): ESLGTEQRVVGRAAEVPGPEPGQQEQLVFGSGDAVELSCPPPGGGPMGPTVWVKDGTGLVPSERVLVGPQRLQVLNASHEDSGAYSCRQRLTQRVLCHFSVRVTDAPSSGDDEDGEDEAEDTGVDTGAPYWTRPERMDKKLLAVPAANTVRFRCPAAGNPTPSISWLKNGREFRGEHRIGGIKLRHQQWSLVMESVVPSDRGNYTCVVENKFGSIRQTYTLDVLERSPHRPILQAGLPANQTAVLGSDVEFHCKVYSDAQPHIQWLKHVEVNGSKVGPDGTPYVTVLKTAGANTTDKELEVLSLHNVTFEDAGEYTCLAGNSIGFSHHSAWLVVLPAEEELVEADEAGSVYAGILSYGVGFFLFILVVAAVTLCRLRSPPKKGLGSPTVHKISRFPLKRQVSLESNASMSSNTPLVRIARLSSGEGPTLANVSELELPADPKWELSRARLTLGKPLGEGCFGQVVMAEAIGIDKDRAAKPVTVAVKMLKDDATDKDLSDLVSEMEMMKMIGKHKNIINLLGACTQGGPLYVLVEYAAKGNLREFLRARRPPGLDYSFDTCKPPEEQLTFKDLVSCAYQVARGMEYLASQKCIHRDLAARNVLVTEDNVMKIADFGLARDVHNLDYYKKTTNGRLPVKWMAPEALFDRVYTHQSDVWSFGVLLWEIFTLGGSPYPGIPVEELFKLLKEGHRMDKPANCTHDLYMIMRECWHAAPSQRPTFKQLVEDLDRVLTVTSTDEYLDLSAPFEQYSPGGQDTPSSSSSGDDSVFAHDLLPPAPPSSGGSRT

| IC50 (dephosphorylated FGFR2) | IC50 (human wild type FGFR2) | IC50 (human wild type FGFR3) | SMILES |
| --- | --- | --- | --- |
| 157 nM |  |  | C=CC(=O)N1CC(C(=O)N2CCN(c3cccc(-c4cnc5ccc(Nc6cc(OC)cc(OC)c6)cc5n4)c3)CC2)C1 [Example 25, 1-(3-(4-(3-(7-((3,5-dimethoxyphenyl)amino)-quinoxalin-2-yl)phenyl)-piperazine-1-carbonyl)-azetidin-1-yl)prop-2-en-1-one] |
| 3 nM | 37 nM |  | C=CC(=O)N1CC(O)(C(=O)N2CCC(n3cc(-c4cnc5ccc(N(C)c6cc(OC)cc(OC)c6)cc5n4)cn3)CC2)C1 [Example 27, 1-(3-(4-(4-(7-((3,5-dimethoxyphenyl)(methyl)amino)quinoxalin-2-yl)-1H-pyrazol-1-yl)piperidine-1-carbonyl)-3-hydroxyazetidin-1-yl)prop-2-en-1-one] |
| 3 nM | 140 nM | 35 nM | C=CC(=O)N1CC(C(=O)N2CCC(n3cc(-c4cnc5ccc(Nc6cc(OC)cc(OC)c6)cc5n4)cn3)CC2)C1 [Example 1, 1-(3-(4-(4-(7-((3,5-dimethoxyphenyl)amino)quinoxalin-2-yl)-1H-pyrazol-1-yl)piperidine-1-carbonyl)azetidin-1-yl)prop-2-en-1-one] |
| 5 nM | 62 nM |  | C=CC(=O)N1CC(CN2CCC(n3cc(-c4cnc5ccc(Nc6cc(OC)cc(OC)c6)cc5n4)cn3)CC2)C1 [Example 30, 1-(3-((4-(4-(7-((3,5-dimethoxyphenyl)amino)quinoxalin-2-yl)-1H-pyrazol-1-yl)piperidin-1-yl)methyl)azetidin-1-yl)prop-2-en-1-one] |
| 19 nM | 301 nM |  | COc1cc(Nc2ccc3ncc(-c4cn(C5CCN(C(=O)C6(F)CN(C(=O)/C=C/CN(C)C)C6)CC5)nc4C)nc3c2)cc(OC)c1 [Example 22, (E)-1-(3-(4-(4-(7-((3,5-dimethoxyphenyl)amino)-quinoxalin-2-yl)-3-methyl-1H-pyrazol-1-yl)-piperidine-1-carbonyl)-3-fluoroazetidin-1-yl)-4-(dimethylamino)but-2-en-1-one] |
|  | 170 nM |  | COc1cc(Nc2ccc3ncc(-c4cnn(C5CCN(C(=O)C6(F)CN(C(=O)/C=C/CN(C)C)C6)CC5)c4C)nc3c2)cc(OC)c1 [Example 17, (E)-1-(3-(4-(4-(7-((3,5-dimethoxyphenyl)amino)-quinoxalin-2-yl)-5-methyl-1H-pyrazol-1-yl)piperi-dine-1-carbonyl)-3-fluoroazetidin-1-yl)-4-(dimethylamino)but-2-en-1-one] |
| 4 nM |  | 17 nM | C=CC(=O)N1CC(F)(C(=O)N2CCC(n3cc(-c4cnc5ccc(Nc6cc(OC)cc(OC)c6)cc5n4)cn3)CC2)C1 [Example 4, 1-(3-(4-(4-(7-((3,5-dimethoxyphenyl)amino)-quinoxalin-2-yl)-1H-pyrazol-1-yl)piperidine-1-carbonyl)-3-fluoro-azetidin-1-yl)prop-2-en-1-one] |
| 3 nM | 6 nM |  | C#CCN(c1cc(OC)cc(OC)c1)c1ccc2ncc(-c3cnn(C4CCN(C(=O)C5(F)CN(C(=O)/C=C/CN(C)C)C5)CC4)c3)nc2c1 [Example 28, (E)-1-(3-(4-(4-(7-((3,5-dimethoxyphenyl)(prop-2-yn-1-yl)amino)quinoxalin-2-yl)-1H-pyrazol-1-yl)piperidine-1-carbonyl)-3-fluoroazetidin-1-yl)-4-(dimethylamino)but-2-en-1-one] |
| 8 nM | 49 nM |  | C=CC(=O)N1CC(OC)(C(=O)N2CCC(n3cc(-c4cnc5ccc(Nc6cc(OC)cc(OC)c6)cc5n4)cn3)CC2)C1 [Example 24, 1-(3-(4-(4-(7-((3,5-dimethoxyphenyl)amino)-quinoxalin-2-yl)-1H-pyrazol-1-yl)piperidine-1-carbonyl)-3-methoxy-azetidin-1-yl)prop-2-en-1-one] |
| 38 nM |  |  | COc1cc(Nc2ccc3ncc(-c4c(C)nn(C5CCN(C(=O)C6(F)CN(C(=O)/C=C/CN(C)C)C6)CC5)c4C)nc3c2)cc(OC)c1 [Example 23, (E)-1-(3-(4-(4-(7-((3,5-dimethoxyphenyl)amino)-quinoxalin-2-yl)-3,5-dimethyl-1H-pyrazol-1-yl)piperidine-1-carbonyl)-3-fluoroazetidin-1-yl)-4-(dimethylamino)but-2-en-1-one] |
| 5 nM |  |  | C=CC(=O)N1CC(O)(C(=O)N2CCC(n3cc(-c4cnc5ccc(Nc6cc(OC)cc(OC)c6)cc5n4)cn3)CC2)C1 [Example 26, 1-(3-(4-(4-(7-((3,5-dimethoxyphenyl)amino)quinoxalin-2-yl)-1H-pyrazol-1-yl)piperidine-1-carbonyl)-3-hydroxyazetidin-1-yl)prop-2-en-1-one] |
|  | 486 nM |  | C=CC(=O)N1CC(C(=O)N2CCN(c3ccc(-c4cnc5ccc(Nc6cc(OC)cc(OC)c6)cc5n4)cn3)CC2)C1 [Example 5, 1-(3-(4-(5-(7-((3,5-dimethoxyphenyl)amino)-quinoxalin-2-yl)pyridin-2-yl)piperazine-1-carbonyl)azetidin-1-yl)-prop-2-en-1-one] |
| 6 nM | 28 nM |  | COc1cc(Nc2ccc3ncc(-c4cnn(C5CCN(C(=O)C6(F)CN(C(=O)/C=C/CN(C)C)C6)CC5)c4)nc3c2)cc(OC)c1 [Example 10, (E)-1-(3-(4-(4-(7-((3,5-dimethoxyphenyl)amino)-quinoxalin-2-yl)-1H-pyrazol-1-yl)piperidine-1-carbonyl)-3-fluoro-azetidin-1-yl)-4-(dimethylamino)but-2-en-1-one] |
| 290 nM |  |  | COc1cc(Nc2ccc3ncc(-c4cnc(N5CCN(C(=O)C6(F)CN(C(=O)/C=C/CN(C)C)C6)CC5)cc4C)nc3c2)cc(OC)c1 [Example 14, (E)-1-(3-(4-(5-(7-((3,5-dimethoxyphenyl)amino)-quinoxalin-2-yl)-4-methylpyridin-2-yl)-piperazine-1-carbonyl)-3-fluoroazetidin-1-yl)-4-(dimethylamino)but-2-en-1-one] |
| 18 nM | 182 nM |  | COc1cc(Nc2ccc3ncc(-c4ccc(N5CCN(C(=O)C6(F)CN(C(=O)/C=C/CN(C)C)C6)CC5)nc4)nc3c2)cc(OC)c1 [Example 7, (E)-1-(3-(4-(5-(7-((3,5-dimethoxyphenyl)amino)-quinoxalin-2-yl)pyridin-2-yl)piperazine-1-carbonyl)-3-fluoroazetidin-1-yl)-4-(dimethylamino)but-2-en-1-one] |
| 5 nM | 56 nM |  | C=CC(=O)N1CC(CN2CCC(n3cc(-c4cnc5ccc(Nc6cc(OC)cc(OC)c6)cc5n4)cn3)CC2)(OC)C1 [Example 29, 1-(3-((4-(4-(7-((3,5-dimethoxyphenyl)amino)quinoxalin-2-yl)-1H-pyrazol-1-yl)piperidin-1-yl)methyl)-3-methoxyazetidin-1-yl)prop-2-en-1-one] |
| 14 nM |  |  | COc1cc(Nc2ccc3ncc(-c4ccc(N5CCN(C(=O)C6CN(C(=O)/C=C/CN(C)C)C6)CC5)nc4)nc3c2)cc(OC)c1 [Example 6, (E)-1-(3-(4-(5-(7-((3,5-dimethoxyphenyl)amino)-quinoxalin-2-yl)pyridin-2-yl)piperazine-1-carbonyl)azetidin-1-yl)-4-(dimethylamino)but-2-en-1-one] |
